Results published in a melting point compilation (Tetko et al.).

SMILES	melting point [°C]
Cc1ccc(-c2onc(C(=O)c3ccc(Cl)cc3)c2S(=O)(=O)c2ccccc2)cc1	149
CCC(CCC(C)C1CCC2C3=CC=C4CC(O)CCC4(C)C3CCC21C)C(C)C (configuration not stated)	144
CCC1=C(C=NNc2ccc([N+](=O)[O-])cc2[N+](=O)[O-])CCCC1	192 to 194
COc1ccc(C=C2SC(=S)N(CNc3ccc([N+](=O)[O-])cc3)C2=O)cc1	176
CC(=O)OC1CCC2(C)C(C1)CC1(OCCO1)C1C2CCC2(C)C1CCC21OCCO1 (configuration not stated)	205 to 210
NS(=O)(=O)c1cc2c(cc1Cl)NCNS2(=O)=O	267
c1ccc(COc2cccc3[nH]ccc23)cc1	60
CCc1ccccc1O	18
CC(=CC(=O)O)C1CCCCC1	85.5
Cc1nn(-c2ccccc2)nc1C(=O)NNC(=S)Nc1ccccc1	205 to 206
NNC(=O)c1cccnc1	162
CC(=O)C(=NNc1ccccc1)c1cc(C(=NNc2ccccc2)C(C)=O)c([N+](=O)[O-])cc1[N+](=O)[O-]	215
CCC1CN2CCc3c([nH]c4cccc(OC)c34)C2CC1C(=COC)C(=O)OC (configuration not stated)	104
CCN(CC)CCNc1ccc(C)c2sc3ccccc3c(=O)c12	64.5
CC(=O)/C=C/c1cc(N(C)C)ccc1Cc1ccc(N(C)C)cc1I	164
O=C1OC(=O)C2=C1CCCC2	74
CNc1ccc(NCCO)c2c1C(=O)c1ccccc1C2=O	187
NC(=O)c1sccc1N	120 to 122
NC(CSCc1ccccc1)C(=O)Nc1ccc([N+](=O)[O-])cc1 (configuration not stated)	100 to 102
CCCCCCCC=O	12.5
OCCNc1nccnc1Cl	54 to 58
CC(C)(O)C(Br)(Br)Br	169

SMILES	melting point [°C]
COC(=O)C1(S(=O)(=O)c2ccc(Br)cc2)CCCCC1	112
COc1cc(C(c2ccc(C)o2)c2ccc(C)o2)c(O)cc1[N+](=O)[O-]	104
FC(F)(F)S(F)(F)(F)(F)F	-87
O=C1CCC(c2ccccc2)O1 (configuration not stated)	36.5
c1ccc(C2Nc3ccccc3C2c2ccccc2)cc1 (configuration not stated)	173
Cc1nc2scc(-c3ccccc3)c2c(=O)n1NC(=O)c1ccc(F)cc1	138 to 140
O=C1C(c2ccccc2)=Nc2cc([N+](=O)[O-])ccc21	185
CC(C)C(N)=NO	60 to 61
O=C1c2ccc([N+](=O)[O-])cc2C(=O)N1CCCCCCBr	83 to 85
CSc1ncc(C=O)n1Cc1ccccc1	86 to 88
COC(=O)[C@@H](NC(=O)OCc1ccccc1)[C@@H](C)O	92 to 94
OCc1cccc2c1OCCCO2	47 to 48
COc1ccc(C=CC(=O)c2ccc(F)cc2)cc1OC	88 to 93
O=[N+]([O-])c1ccc(S)cc1	74 to 77
CCCCCCCCCc1ccc(OCCOCCO)cc1	43
CC1(C)CC(=O)C2=C(C1)Nc1c(ccc3ccccc13)C2c1ccc(O)cc1 (configuration not stated)	312
CCCC(C)(C)C(C)(C)C	-54
COC(=O)c1ccc(O)c(Cl)c1	107
O=Cc1cc(F)c(F)c(F)c1	25.3
CC=Cc1ccc(OC)c(OC)c1	18
COc1ccc(Oc2ccc(C(F)(F)F)cc2[N+](=O)[O-])cc1	45 to 47
NS(=O)(=O)c1ccc(C(=O)O)cc1	266 to 268

SMILES	melting point [°C]
O=C(c1ccccc1)c1ccsc1C(=O)O	152
N#C/C(=C/c1ccc(Cl)cc1Cl)c1nc(-c2ccc([N+](=O)[O-])cc2)cs1	210
CC(CN1C(=O)c2cccnc2Nc2ccccc21)N(C)C (configuration not stated)	122
Cn1ccccc1=S	89.5
COc1ccc(S(=O)(=O)Cl)c(OC)c1	72
C=CCNC(=S)Nc1sc2c(c1C(=O)OCC)CCN(Cc1ccccc1)C2	138 to 139
O=[N+]([O-])c1ccc(NN=Cc2cccc3c(Br)ccc([N+](=O)[O-])c23)c([N+](=O)[O-])c1	243 to 244
O=C(O)c1ccc(Oc2ccccc2)o1	126 to 127
CC(=O)OC1CC2C(C)C(=O)C3(C(OC(C)=O)CC4C(C)(C)CCC(OC(C)=O)C4(C=O)C13)C2OC(C)=O (configuration not stated)	250 to 252
NC(=S)Nc1ccccc1C(F)(F)F	158 to 159
NCc1ccccn1	-20
CC1(C)CCC(Cc2ccc(Cl)cc2)C1(O)Cn1cncn1 (configuration not stated)	112
CC(CC(C)=NO)=NO	149
Cc1ccc(NC(=O)c2cccc3ccccc23)cc1	174
CCOC(=O)c1cc(-c2ccccc2)on1	48 to 49.5
CCC#CCCCCC(=O)O	14
CCOCn1c(-c2ccc(Cl)cc2)c(C#N)c(Br)c1C(F)(F)F	101
COc1c(C)cc2c(c1C)CC2=O	51
O=[N+]([O-])c1cccnc1	40
Sc1nnc(-c2cc(Cl)nc(Cl)c2)o1	205 to 206
O=C(COc1ncn(-c2ccc(Cl)cc2)n1)NNC(=S)Nc1ccc(F)cc1	181 to 183
Cc1nc(-c2ccccc2)sc1C(=O)Cl	122 to 124

SMILES	melting point [°C]
Brc1c2ccccc2c(Br)c2ccccc12	226
O=c1c(Cl)c(Cl)cnn1-c1ccc(C(F)(F)F)cc1	139 to 140
CCOC(=O)Nc1c([N+](=O)[O-])cc(Cl)cc1[N+](=O)[O-]	167
O=Cc1ccc(SC2CCCCC2)c([N+](=O)[O-])c1	94 to 96
N=C1NC(=O)C(=NNc2ccccc2)S1	210
O=C(CBr)c1cccc2c1OCCCO2	55 to 56
O=C1C2CC=CCC2C(=O)N1SC(Cl)(Cl)Cl (configuration not stated)	178
CC(C)=C1CC(=C(C)C)C1=O	87
COc1ccc(C(N)=O)cc1[N+](=O)[O-]	175
C=C1C(=O)C23C(OC(C)=O)CC4C5(C)CCCC4(C(=O)OC5)C2C(OC(C)=O)CC1C3OC(C)=O (configuration not stated)	235
Cc1c(C(=O)Cl)cnn1-c1ccccc1	147 to 148
Nc1cccnc1[N+](=O)[O-]	194 to 196
O=C(O)C[C@H](NC(=O)OCC1c2ccccc2-c2ccccc21)c1cccc([N+](=O)[O-])c1	140
CC(C)=CC1C(C(=O)OCc2coc(Cc3ccccc3)c2)C1(C)C (configuration not stated)	56.5
Cc1ccnc(C#N)c1	87
OCc1cccc(CN2CCCCC2)c1	67 to 69
CS(=O)c1cccc(CC(=O)O)c1 (configuration not stated)	111
O=C(Nc1ccccc1)C(F)(F)F	86 to 90
O=C1C=CC2=CC(=O)C=CC2=C1	132
C[C@@]12CCC=C1[C@@H]1CC[C@@H]3C[C@H](O)CC[C@]3(C)[C@H]1CC2	129 to 130
O=C(O)c1cncc(-c2ccccc2)c1	260
